US20110092515A1, “MELT GRANULATION PROCESS” (priority 2008, published 2011)

Assay: Relative solubility of the physical forms
Format: physicochemical
Details: monohydrate as impurity in the anhydrous form

SMILES: CC(O)C(=O)O.CN1CCN(c2ccc3nc(-c4c(N)c5c(F)cccc5[nH]c4=O)[nH]c3c2)CC1 [monohydrate form, 4-amino-5-fluoro-3-[5-(4-methylpiperazin-1-yl)-1H-benzimidazol-2-yl]quinolin-2(1H)-one lactic acid salt]
- solubility compared with the anhydrous form: less soluble
